Consider eight compounds from the supplement of paper PMC4862054.

SMILES strings stand for the structures. “And” between values parts separate entries of the source, which are not always exact repeats. Identical values can stand only once.

Settings in all cases: incubation time: 72 h
Assay [1] relates to MDA-MB-231. Description: drug sensitivity score (DSS), CellTiter-Glo (DSS (AUC-based score)); higher = stronger drug effect (viability inhibition or cytotoxicity); extreme values may be limits of the assay. Summed up: (§1)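 The drug sensitivity score reflects the area under a fitted dose-response curve. To obtain it, breast cancer cells in 20 µl suspension were seeded into 384-well plates containing compound at 5 concentrations, 10-fold apart over a compound-specific 10,000-fold range, and incubated 72 h. CellTox Green fluorescence (485/520 nm) was read first and CellTiter-Glo luminescence second, after 10 min at room temperature. Each plate was normalised to 0.1 % DMSO and a positive kill control.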
In general terms: In ATP-based viability assays light output follows the ATP content of the culture.

The subject of assay [2] is HCC1937. The assay is described as above. Summed up:
as §1

Assay [3] deals with DU-4475. Described as above. The gist of the method:
as §1

For assay [4], the system named is CAL-148. The description is as above. The gist of the method:
as §1

In assay [5] the test system is HCC1599. The assay is described as above. Summed up:
as §1

The subject of the next assay is CAL-120. The description is as above. The gist of the method: as §1
Assay [6] deals with MFM-223. The description is as above. Summed up:
as §1

In assay [7] the test system is CAL-51. The description is as above. The gist of the method:
as §1

The subject of assay [8] is MDA-MB-436. The description is as above. The gist of the method: as §1
In assay [9] the test system is HCC1143. The assay is described as above. The gist of the method:
as §1

For assay [10], the system named is SK-BR-3. Described as above. Summed up: as §1
Assay [11] has as its system BT-549. Described as above. Summed up:
as §1

Assay [12] relates to CAL-85-1. The assay is described as above. The gist of the method: as §1
In assay [13] the test system is MDA-MB-231. The assay can be described thus: normalised viability (% of control), CellTiter-Blue; higher = more viable cells (about 100 = DMSO control). Summed up:
(§2)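 Each value is normalised viability at a single listed concentration of the series. Breast cancer cell lines in 384-well plates were incubated 72 h with compound and read by CellTiter-Blue fluorescence at 560/590 nm, with vehicle set to 100 and a positive kill control to 0 on every plate.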
In general terms: Alamar Blue is a resazurin reagent that responds to reducing activity.

In assay [14] the test system is HCC1937. The assay is described as above. Summed up:
as §2

For a further assay, the system named is MDA-MB-468. The description is as above. The gist of the method: as §2
For assay [15], the system named is DU-4475. The description is as above. Summed up: as §2
Assay [16] deals with CAL-148. Described as above. Summed up: as §2
Assay [17] concerns HCC1599. The assay is described as above. Summed up:
as §2

Assay [18] deals with MFM-223. Described as above. Summed up:
as §2

The test system of assay [19] is CAL-51. The assay is described as above. The gist of the method:
as §2

Assay [20] concerns MDA-MB-436. The description is as above. The gist of the method: as §2
The subject of a further assay is Hs578T. The assay is described as above. The gist of the method: as §2
Assay [21] concerns HCC1143. The description is as above. Summed up:
as §2

The test system of assay [22] is SK-BR-3. Described as above. The gist of the method: as §2
In assay [23] the test system is BT-549. Described as above. Summed up: as §2
For a further assay, the system named is BT-474. The assay is described as above. The gist of the method: as §2
Assay [24] relates to CAL-85-1. Described as above. The gist of the method:
as §2

The subject of another assay is MDA-MB-453. The assay is described as above. Summed up: as §2

Consider `Cc1ccc(NC(=O)c2ccc(CN3CCN(C)CC3)cc2)cc1Nc1nccc(-c2cccnc2)n1` [Imatinib], for which the drug sensitivity score in the assay with MDA-MB-231 [1], with HCC1937 [2], in the assay with DU-4475 [3], with CAL-148 [4], in the assay with HCC1599 [5] and in the assay on CAL-120 was 0 in each case. Moreover, the drug sensitivity score in the assay with MFM-223 [6] was 0; with CAL-51 [7], 1.42; in the assay on MDA-MB-436 [8], 0; in the assay on HCC1143 [9], 0; in the assay with SK-BR-3 [10] it was 0; with BT-549 [11], 0. The compound also showed a drug sensitivity score in the assay on CAL-85-1 [12] of 0. For the same compound, the normalised viability was 92.1% and 110% in the assay with MDA-MB-231 [13] (1000 nM); 80.5% and 85.3% with HCC1937 [14] (1000 nM); 106% and 109% in the assay on MDA-MB-468 (1000 nM); 104% and 85.4% with DU-4475 [15] (30 nM); 89.8% and 88.6% in the assay with CAL-148 [16] (30 nM); 109% and 102% in the assay with HCC1599 [17] (1000 nM). Also, the normalised viability with MFM-223 [18] (1000 nM) was 104% and 100%; with CAL-51 [19] (30 nM) it was 106% and 99.3%; in the assay with MDA-MB-436 [20] (1000 nM), 74.6% and 90.3%; in the assay on Hs578T (1000 nM) it was 100% and 103%; with HCC1143 [21] (1000 nM), 85.9% and 97%; in the assay on SK-BR-3 [22] (1000 nM) it was 103% and 115%. The normalised viability in the assay on BT-549 [23] (1000 nM) is 95.8% and 88.7%; in the assay with BT-474 (1000 nM), 111%; in the assay on CAL-85-1 [24] (30 nM) it was 91.2% and 88%.
In the case of `Nc1ncnc2c1c(COc1cccc(Cl)c1)nn2C1CCOCC1`, the drug sensitivity score with MDA-MB-231 [1], in the assay on HCC1937 [2], with DU-4475 [3], with CAL-148 [4], in the assay with HCC1599 [5] and in the assay with CAL-120 was 0 in each case. In addition, the drug sensitivity score came to 0 with MFM-223 [6]; 0 in the assay on CAL-51 [7]; 0 with MDA-MB-436 [8]; 0 in the assay with HCC1143 [9]; 0 in the assay on SK-BR-3 [10]; 0.519 in the assay with BT-549 [11]. The compound further came in with a drug sensitivity score in the assay on CAL-85-1 [12] of 0.
As for `Cc1cc2c(C(C)C)c(O)c(O)c(C=O)c2c(O)c1-c1c(C)cc2c(C(C)C)c(O)c(O)c(C=O)c2c1O` [Gossypol], the normalised viability in the assay with MDA-MB-231 [13] (10000 nM) was determined as 22.8%; in the assay on HCC1937 [14] (10000 nM) it was 23.3%; in the assay with MDA-MB-468 (10000 nM), 6.5%; in the assay on DU-4475 [15] (300 nM), 93.9%; in the assay with CAL-148 [16] (300 nM), 109%; in the assay on HCC1599 [17] (10000 nM) it was 47.2%. For the same compound, the normalised viability in the assay with MFM-223 [18] (10000 nM) worked out at 23.3%; in the assay on CAL-51 [19] (300 nM) it was 94.2%; in the assay with MDA-MB-436 [20] (10000 nM), 14.9%; with Hs578T (10000 nM), 6%; with HCC1143 [21] (10000 nM) it was 49%; in the assay with SK-BR-3 [22] (10000 nM), 28.6%. Moreover, the normalised viability with BT-549 [23] (10000 nM) came to 19.5%; with BT-474 (10000 nM), 21.5%; in the assay on CAL-85-1 [24] (300 nM), 87.3%; in the assay on MDA-MB-453 (300 nM), 103%.
Regarding `CC(C)c1c(C(=O)Nc2ccccc2)c(-c2ccccc2)c(-c2ccc(F)cc2)n1CC[C@@H](O)C[C@@H](O)CC(=O)O` [Atorvastatin], the drug sensitivity score is 10.1 in the assay with MDA-MB-231 [1]; 1 in the assay on HCC1937 [2]; 0 in the assay with DU-4475 [3]; 0 with CAL-148 [4]; 0 in the assay with HCC1599 [5]; 4.42 in the assay with CAL-120. For the same compound, the drug sensitivity score is 0 with MFM-223 [6]; 6.03 in the assay on CAL-51 [7]; 0 in the assay with MDA-MB-436 [8]; 1.92 in the assay on HCC1143 [9]; 0 with SK-BR-3 [10]; 0 with BT-549 [11]. This compound gave a drug sensitivity score in the assay on CAL-85-1 [12] of 3.85.
For `CO[C@H]1C[C@@H]2CC[C@@H](C)[C@@](O)(O2)C(=O)C(=O)N2CCCC[C@H]2C(=O)O[C@H]([C@H](C)C[C@@H]2CC[C@@H](OCCO)[C@H](OC)C2)CC(=O)[C@H](C)/C=C(\C)[C@@H](O)[C@@H](OC)C(=O)[C@H](C)C[C@H](C)/C=C/C=C/C=C/1C` [Everolimus], the drug sensitivity score with MDA-MB-231 [1] stood at 0; with HCC1937 [2], 8.95; with DU-4475 [3] it was 6.44; in the assay on CAL-148 [4], 13.4; in the assay on HCC1599 [5], 0; with CAL-120 it was 8.8. For the same compound, the drug sensitivity score in the assay with MFM-223 [6] was found to be 10.8; in the assay with CAL-51 [7], 9.8; in the assay on MDA-MB-436 [8], 5.1; in the assay with HCC1143 [9], 8.31; in the assay on SK-BR-3 [10] it was 12.7; in the assay on BT-549 [11], 13. This compound also came in with a drug sensitivity score in the assay on CAL-85-1 [12] of 10.6. Further, the normalised viability was 48.1% and 68.9% in the assay with MDA-MB-231 [13] (100 nM); 48.8% and 48.4% with HCC1937 [14] (100 nM); 72.6% and 66.8% in the assay with MDA-MB-468 (100 nM); 50.4% and 48.4% in the assay with CAL-148 [16] (3 nM); 87% and 69.7% with HCC1599 [17] (100 nM); 50% and 45.1% with MFM-223 [18] (100 nM). In addition, the normalised viability is 49.6% and 52.9% in the assay with CAL-51 [19] (3 nM); 62.4% and 51% in the assay with Hs578T (100 nM); 59.7% and 44.4% in the assay with SK-BR-3 [22] (100 nM); 62.1% and 54.9% with BT-549 [23] (100 nM); 65.9% and 57.5% in the assay with BT-474 (100 nM); 63.9% and 54% in the assay on CAL-85-1 [24] (3 nM). For the same compound, the normalised viability in the assay with MDA-MB-453 (3 nM) is 30.8% and 28.6%.
Consider `Cn1c(=O)n(-c2ccc(C(C)(C)C#N)cc2)c2c3cc(-c4cnc5ccccc5c4)ccc3ncc21` [Dactolisib], for which the drug sensitivity score with MDA-MB-231 [1] amounted to 11.7; in the assay on HCC1937 [2], 9.76; in the assay on DU-4475 [3] it was 11.4; in the assay with CAL-148 [4], 14.6; in the assay with HCC1599 [5] it was 2.8; in the assay with CAL-120, 17.9. Also, the drug sensitivity score in the assay on MFM-223 [6] is 13.4; in the assay on CAL-51 [7], 16.8; in the assay with MDA-MB-436 [8] it was 11.8; in the assay with HCC1143 [9] it was 12.7; in the assay with SK-BR-3 [10], 16.2; in the assay with BT-549 [11], 18.6. For the same compound, the drug sensitivity score with CAL-85-1 [12] came to 15.3.
`NS(=O)(=O)OC[C@@H]1C[C@@H](n2ccc3c(N[C@H]4CCc5ccccc54)ncnc32)C[C@@H]1O` [Pevonedistat]: the drug sensitivity score amounted to 6.52 with MDA-MB-231 [1]; 2.78 with HCC1937 [2]; 22.5 with DU-4475 [3]; 0 in the assay with CAL-148 [4]; 14 in the assay with HCC1599 [5]; 7.98 with CAL-120. Also, the drug sensitivity score in the assay with MFM-223 [6] is 9.97; in the assay with CAL-51 [7], 22.8; with MDA-MB-436 [8], 14.2; in the assay with HCC1143 [9], 8.48; in the assay with SK-BR-3 [10] it was 21.7; in the assay with BT-549 [11], 15.3. Moreover, the drug sensitivity score in the assay with CAL-85-1 [12] was 11.9.
As to `Nc1nc(OCc2cc(Br)cs2)c2[nH]cnc2n1` [Lomeguatrib], the drug sensitivity score in the assay on MDA-MB-231 [1], in the assay with HCC1937 [2], with DU-4475 [3], in the assay on CAL-148 [4], with HCC1599 [5] and with CAL-120 was 0 in each case. Further, the drug sensitivity score in the assay with MFM-223 [6], in the assay with CAL-51 [7], in the assay with MDA-MB-436 [8], with HCC1143 [9], in the assay with SK-BR-3 [10] and in the assay with BT-549 [11] was 0 throughout. Moreover, in the assay on CAL-85-1 [12], the drug sensitivity score was 0.
